Experimental findings from patent US20250101041A1, “POSITIVE ALLOSTERIC MODULATORS OF THE MUSCARINIC ACETYLCHOLINE RECEPTOR M4” (Vanderbilt University, priority 2022, published 2025) are described below.

The term Emax denotes the greatest response seen or fitted, relative to the assay's reference. Broadly, the EC50 is the concentration needed to bring the measured effect to its halfway point.

This assay deals with T1, human mAChR M4 (Homo sapiens, UniProt P08173).
T1 construct: expressed in transfected cells; host or cells: CHO-K1 (American Type Culture Collection), stably expressing hM4 and Gqi5
T1 sequence (P08173 1-479): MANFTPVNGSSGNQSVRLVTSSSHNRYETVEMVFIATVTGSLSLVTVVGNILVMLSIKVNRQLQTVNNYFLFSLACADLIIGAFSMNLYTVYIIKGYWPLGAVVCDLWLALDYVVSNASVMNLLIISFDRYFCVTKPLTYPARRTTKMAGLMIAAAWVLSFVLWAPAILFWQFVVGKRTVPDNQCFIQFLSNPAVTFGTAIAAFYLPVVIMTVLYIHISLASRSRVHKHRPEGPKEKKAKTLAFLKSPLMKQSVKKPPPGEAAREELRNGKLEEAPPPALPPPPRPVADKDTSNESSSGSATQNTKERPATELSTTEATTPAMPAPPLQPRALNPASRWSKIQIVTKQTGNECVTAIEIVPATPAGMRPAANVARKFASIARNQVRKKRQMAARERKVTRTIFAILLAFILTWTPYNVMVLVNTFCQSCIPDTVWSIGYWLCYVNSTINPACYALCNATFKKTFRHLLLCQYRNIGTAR
As to the kind of experiment: mAChR M4 cell-based functional assay: calcium mobilization (Fluo-4, FDSS), potentiation of EC20 acetylcholine response in hM4-Gqi5 CHO-K1 cells. The note with it: human M4; for Emax at 30 µM: CHO-K1, % ACh maximum at 30 μM; for EC50: potentiation of EC20 acetylcholine response, calcium mobilization. In outline: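 CHO-K1 cells stably co-expressing human M4 and chimeric Gqi5, loaded with Fluo-4 AM (50 min, 37 °C). Compounds in 11-point 1:3 series added first; EC20 acetylcholine added at 144 s and again at 230 s. Calcium read on FDSS at 1 Hz; EC50 and Emax from four-parameter logistic fit of potentiated EC20 response.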
Background: Calcium flux is commonly read through the fluorescence of an indicator in the cells.

Each structure is given as a SMILES string.

Regarding `COCc1cc(=O)n2nc(N3CCc4ncc(-c5cc(F)c(F)cc5F)cc4C3)c(C)cc2n1` [Compound 1-335, 2-(methoxymethyl)-8-methyl-7-(3-(2,4,5-trifluorophenyl)-7,8-dihydro-1,6-naphthyridin-6(5H)-yl)-4H-pyrimido[1,2-b]pyridazin-4-one], the Emax at 30 µM is 68% and the EC50 turned out to be 576 nM.

Take `CCN(CC)c1cnc2c(c1)CN(c1nn3c(=O)ccnc3cc1C)CC2` [Compound 2-92, 7-(3-(diethylamino)-7,8-dihydro-1,6-naphthyridin-6(5H)-yl)-8-methyl-4H-pyrimido[1,2-b]pyridazin-4-one]: the Emax at 30 µM was determined as 70% and the EC50 was 863 nM.

Consider `Cc1cc2nccc(=O)n2nc1N1CCc2ncc(-c3cccc(C)c3C)cc2C1` [Compound 1-442, 7-(3-(2,3-dimethylphenyl)-7,8-dihydro-1,6-naphthyridin-6(5H)-yl)-8-methyl-4H-pyrimido [1,2-b]pyridazin-4-one], for which the maximal response (Emax) at 30 µM was determined as 86% and the EC50 is 411 nM.

Turning to `Cc1cc2nc(C3CC3)cc(=O)n2nc1N1CCc2ncc(N3CCCn4nccc43)cc2C1` [Compound 2-15, 2-cyclopropyl-7-(3-(6,7-dihydropyrazolo[1,5-a]pyrimidin-4(5H)-yl)-7,8-dihydro-1,6-naphthyridin-6(5H)-yl)-8-methyl-4H-pyrimido[1,2-b]pyridazin-4-one], the maximum response (Emax) at 30 µM is 85% and the concentration for a half-maximal effect (EC50) was determined as 7 nM.

Regarding `Cc1cc(=O)n2nc(N3CCc4ncc(-c5cnccc5C)cc4C3)c(C)c(C)c2n1` [Compound 1-117, 2,8,9-trimethyl-7-(3-(4-methylpyridin-3-yl)-7,8-dihydro-1,6-naphthyridin-6(5H)-yl)-4H-pyrimido[1,2-b]pyridazin-4-one], the maximal effect (Emax) at 30 µM came to 90% and the EC50 stood at 198 nM.

`Cc1cc2nccc(=O)n2nc1N1CCc2ncc(N3CCOC(c4cccnc4)C3)cc2C1` (stereo not drawn) [Compound 2-77, 8-methyl-7-(3-(2-(pyridin-3-yl)morpholino)-7,8-dihydro-1,6-naphthyridin-6(5H)-yl)-4H-pyrimido[1,2-b]pyridazin-4-one]: the Emax at 30 µM worked out at 80% and the EC50 was found to be 1270 nM.

For the compound `Cc1c(N2CCc3ncc(-c4cncc(C(F)(F)F)c4)cc3C2)nn2c(=O)cc(C(F)F)nc2c1C` [Compound 1-154, 2-(difluoromethyl)-8,9-dimethyl-7-(3-(5-(trifluoromethyl)pyridin-3-yl)-7,8-dihydro-1,6-naphthyridin-6(5H)-yl)-4H-pyrimido[1,2-b]pyridazin-4-one], the Emax at 30 µM stood at 80% and the concentration for a half-maximal effect (EC50) was determined as 401 nM.

Take `Cc1cc(=O)n2nc(N3CCc4ncc(-c5cc(F)cc(F)c5F)cc4C3)c(C)c(C)c2n1` [Compound 1-273, 2,8,9-trimethyl-7-(3-(2,3,5-trifluorophenyl)-7,8-dihydro-1,6-naphthyridin-6(5H)-yl)-4H-pyrimido[1,2-b]pyridazin-4-one]: the Emax at 30 µM came to 75% and the EC50 was determined as 1090 nM.

Take `Cc1c(N2CCc3ncc(C4CCCCC4)cc3C2)nn2c(=O)ccnc2c1C` [Compound 1-430, 7-(3-cyclohexyl-7,8-dihydro-1,6-naphthyridin-6(5H)-yl)-8,9-dimethyl-4H-pyrimido[1,2-b] pyridazin-4-one]: the maximum response (Emax) at 30 µM was determined as 75% and the concentration for a half-maximal effect (EC50) amounted to 95 nM.

With `Cc1cc(C#N)ncc1-c1cnc2c(c1)CN(c1nn3c(=O)ccnc3cc1C)CC2` [Compound 1-355, 4-methyl-5-(6-(8-methyl-4-oxo-4H-pyrimido[1,2-b]pyridazin-7-yl)-5,6,7,8-tetrahydro-1,6-naphthyridin-3-yl)picolinonitrile], the Emax at 30 µM amounted to 78% and the concentration for a half-maximal effect (EC50) was 1520 nM.

As for `Cc1cc2nc(C(F)F)cc(=O)n2nc1N1CCc2ncc(-c3cnn(C)c3)cc2C1` [Compound 1-35, 2-(Difluoromethyl)-8-methyl-7-(3-(1-methyl-1H-pyrazol-4-yl)-7,8-dihydro-1,6-naphthyridin-6(5H)-yl)-4H-pyrimido[1,2-b]pyridazin-4-one], the maximum response (Emax) at 30 µM amounted to 92% and the EC50 stood at 80 nM.

In the case of `Cc1cc2nccc(=O)n2nc1N1CCc2ncc(-c3cccnc3C(F)F)cc2C1` [Compound 1-425, 7-(3-(2-(difluoromethyl)pyridin-3-yl)-7,8-dihydro-1,6-naphthyridin-6(5H)-yl)-8-methyl-4H-pyrimido[1,2-b]pyridazin-4-one], the maximum response (Emax) at 30 µM was 79% and the EC50 was found to be 836 nM.

In the case of `Cc1cc2nccc(=O)n2nc1N1CCc2ncc(Nc3ccncc3F)cc2C1` [Compound 2-111, 7-(3-((3-fluoropyridin-4-yl)amino)-7,8-dihydro-1,6-naphthyridin-6(5H)-yl)-8-methyl-4H-pyrimido[1,2-b]pyridazin-4-one], the Emax at 30 µM came to 98% and the 50% effective concentration (EC50) was found to be 11 nM.

Consider `Cc1cc(=O)n2nc(N3CCc4ncc(-c5cnc(F)cc5C)cc4C3)c(C)cc2n1` [Compound 1-209, 7-(3-(6-fluoro-4-methylpyridin-3-yl)-7,8-dihydro-1,6-naphthyridin-6(5H)-yl)-2,8-dimethyl-4H-pyrimido[1,2-b]pyridazin-4-one], for which the Emax at 30 µM was 88% and the EC50 came out at 266 nM.

`Cc1cc2nccc(=O)n2nc1N1CCc2ncc(Nc3cccnc3)cc2C1` [Compound 2-88, 8-methyl-7-(3-(pyridin-3-ylamino)-7,8-dihydro-1,6-naphthyridin-6(5H)-yl)-4H-pyrimido[1,2-b]pyridazin-4-one]: the maximum response (Emax) at 30 µM is 106% and the EC50 was determined as 173 nM.

Turning to `Cc1cc2nccc(=O)n2nc1N1CCc2ncc(N3CCc4ncccc43)cc2C1` [Compound 2-58, 7-(3-(2,3-dihydro-1H-pyrrolo[3,2-b]pyridin-1-yl)-7,8-dihydro-1,6-naphthyridin-6(5H)-yl)-8-methyl-4H-pyrimido[1,2-b]pyridazin-4-one], the maximal response (Emax) at 30 µM turned out to be 86% and the EC50 turned out to be 188 nM.

Consider `Cc1cc2nc(C(F)F)cc(=O)n2nc1N1CCc2ncc(N3CCCn4nccc43)cc2C1` [Compound 2-14, 2-(difluoromethyl)-7-(3-(6,7-dihydropyrazolo[1,5-a]pyrimidin-4(5H)-yl)-7,8-dihydro-1,6-naphthyridin-6(5H)-yl)-8-methyl-4H-pyrimido[1,2-b]pyridazin-4-one], for which the maximal response (Emax) at 30 µM stood at 88% and the EC50 amounted to 22 nM.

In the case of `COc1cncc(-c2cnc3c(c2)CN(c2nn4c(=O)cc(C)nc4c(C)c2C)CC3)c1` [Compound 1-199, 7-(3-(5-methoxypyridin-3-yl)-7,8-dihydro-1,6-naphthyridin-6(5H)-yl)-2,8,9-trimethyl-4H-pyrimido[1,2-b]pyridazin-4-one], the Emax at 30 µM is 74% and the EC50 was 526 nM.

For `Cc1ccc(-c2cnc3c(c2)CN(c2nn4c(=O)ccnc4cc2C)CC3)nc1` [Compound 1-351, 8-methyl-7-(3-(5-methylpyridin-2-yl)-7,8-dihydro-1,6-naphthyridin-6(5H)-yl)-4H-pyrimido[1,2-b]pyridazin-4-one], the Emax at 30 µM came out at 55% and the half-maximal effective concentration (EC50) amounted to 426 nM.

Regarding `Cc1c(N2CCc3ncc(-c4ccc(C5CC5)nc4)cc3C2)nn2c(=O)cc(C(F)F)nc2c1C` [Compound 1-94, 7-(3-(6-cyclopropylpyridin-3-yl)-7,8-dihydro-1,6-naphthyridin-6(5H)-yl)-2-(difluoromethyl)-8,9-dimethyl-4H-pyrimido[1,2-b]pyridazin-4-one], the maximal response (Emax) at 30 µM was 79% and the EC50 worked out at 122 nM.

`COc1cc(-c2cnc3c(c2)CN(c2nn4c(=O)ccnc4cc2C)CC3)ccn1` [Compound 1-38, 7-(3-(2-methoxypyridin-4-yl)-7,8-dihydro-1,6-naphthyridin-6(5H)-yl)-8-methyl-4H-pyrimido[1,2-b]pyridazin-4-one]: the maximal effect (Emax) at 30 µM was 84% and the 50% effective concentration (EC50) is 338 nM.

As to `COc1cncc(Nc2cnc3c(c2)CN(c2nn4c(=O)ccnc4cc2C)CC3)c1` [Compound 2-137, 7-(3-((5-methoxypyridin-3-yl)amino)-7,8-dihydro-1,6-naphthyridin-6(5H)-yl)-8-methyl-4H-pyrimido[1,2-b]pyridazin-4-one], the Emax at 30 µM came to 98% and the concentration for a half-maximal effect (EC50) was 324 nM.

In the case of `Cc1cc2nccc(=O)n2nc1N1CCc2ncc(Nc3cc(F)nc(F)c3)cc2C1` [Compound 2-100, 7-(3-((2,6-difluoropyridin-4-yl)amino)-7,8-dihydro-1,6-naphthyridin-6(5H)-yl)-8-methyl-4H-pyrimido[1,2-b]pyridazin-4-one], the Emax at 30 µM was 101% and the half-maximal effective concentration (EC50) turned out to be 39 nM.

Take `Cc1cc2nc(C)c(C)c(=O)n2nc1N1CCc2ncc(C(F)(F)F)cc2C1` [Compound 1-25, 2,3,8-trimethyl-7-(3-(trifluoromethyl)-7,8-dihydro-1,6-naphthyridin-6(5H)-yl)-4H-pyrimido[1,2-b]pyridazin-4-one]: the Emax at 30 µM worked out at 81% and the 50% effective concentration (EC50) was 254 nM.
